The target of test [1] is T1, IDH2/R140Q (Homo sapiens, UniProt P48735, R140Q).
T1 sequence (P48735 40-452 R140Q): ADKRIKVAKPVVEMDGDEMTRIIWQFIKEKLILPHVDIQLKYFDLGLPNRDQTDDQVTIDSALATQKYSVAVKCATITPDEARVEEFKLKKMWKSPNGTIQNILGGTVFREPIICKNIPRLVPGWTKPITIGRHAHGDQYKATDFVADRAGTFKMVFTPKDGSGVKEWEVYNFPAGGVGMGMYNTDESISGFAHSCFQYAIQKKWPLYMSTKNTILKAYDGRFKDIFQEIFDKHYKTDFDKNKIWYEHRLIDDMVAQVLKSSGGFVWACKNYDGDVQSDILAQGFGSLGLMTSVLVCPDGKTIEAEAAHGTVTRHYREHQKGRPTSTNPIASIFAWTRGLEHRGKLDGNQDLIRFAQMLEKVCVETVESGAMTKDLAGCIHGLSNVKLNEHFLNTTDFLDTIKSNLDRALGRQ
In words: Determination of the inhibitory activity of the compounds on IDH2/R140Q (NADPH reduction, resazurin/lipoamide dehydrogenase detection). The test is classed as biochemical. More on the design: purchased Abcam ab198153. The note with it: IDH2/R140Q inhibitory activity; pre-incubated at 25° C. for 16 hours; read-out: IC50. As for the experimental part:
In this example, the inhibitory activity of a compound on IDH2/R140Q was determined by measuring the reduction of the cofactor NADPH. The compound was incubated with IDH2/R140Q and NADPH, and then the reaction was initiated by adding α-KG. After a certain time of reaction under linear conditions, lipoamide dehydrogenase and the corresponding substrate resazurin were added for detection. Lipoamide dehydrogenase terminated the IDH2/R140Q reaction bγ subtracting the available cofactor NADPH. It oxidized NADPH to NADP, and reduced resazurin to highly fluorescent resorufin. The production of resorufin was detected to quantify the amount of cofactor NADPH remaining after a specific reaction time.
Then 25 μL of a stop mixed solution (lipoamide dehydrogenase 36 μg/mL, resazurin 30 μM) prepared with the above reaction buffer was added to convert resazurin to resorufin to measure the remaining NADPH. After 10 minutes of incubation at 25° C., the fluorescence value was measured by Tecan […] […] The enzyme activity was measured at 10 concentrations for each compound, and multiple background holes without enzyme and full enzyme activity holes without compound were set up in the reaction. The concentration of dimethyl sulfoxide in the system was less than or equal to 2%. […] The multi-well plate in this example was purchased from Thermo Fisher Scientific, NADPH, α-KG, lipoamide dehydrogenase, and resazurin were purchased from Shenggong Bioengineering Co., Ltd., and IDH2/R140Q was purchased from Abcam (ab198153).
Background: Alamar Blue is a resazurin reagent that responds to reducing activity.

Test [2] concerns the target T1, IDH2/R140Q. The test can be described thus: Inhibition of mutant IDH2 activity at the cell level (extracellular 2-HG, U87MG overexpressing IDH2/R140Q). Conditions: U87MG overexpressing IDH2/R140Q; 2-HG in medium after 24 hours of culturing with compound; read-out: IC50. It is filed as cell-based. As for the experimental part:
2-hydroxyglutarate dehydrogenase (2HGDH) can reduce NAD+ to NADH in the presence of 2-HG. The latter can be quantitatively detected by diaphorase and its substrate Resazurin.
The glioma cells U87MG overexpressing IDH2/R140Q mutation were cultured in 1% sodium pyruvate high-sugar MEM, 10% FBS, and placed in a CO2 incubator (37° C., 5% CO2, 95% air) for cultivation.
The cells were digested with trypsin and seeded in a 96-well plate at a density of 1×10^4 with a medium of 200 μL and cultured in a 37° C. incubator overnight. The next day, the test compound was added to a final concentration of 0.1% for DMSO. […] The protein and other components in the medium that may interfere with the results were filtered, and the follow-up method was used to detect the content of 2-HG. 50 uL CellTiter-Glo (purchased from Promega) was added to the 96-well plate with the remaining 100 μL of medium to detect cell survival;
Extracellular 2-HG detecting system:
(1) 50 μL reaction system: reaction buffer (50 mM Tris pH7.5, 100 mM NaCl, 20 mM MgCl2, 0.05% BSA), in which the final concentration of NAD+ was 40 μM, the final concentration of 2HGDH was 20 nM, and the test sample was added to 5 μL of medium; the reaction solution was mixed and centrifuged, and the reaction was carried out for 1 hour at 25° C. in the dark;
Preparation of 2-HG standard curve: a 2-HG stock solution was diluted to 20 μM with reaction buffer, and a 2-fold gradient diluting was performed for a total of 6 points. Afterwards, the above-mentioned 2-HG was measured according to the extracellular 2-HG detecting system, and a standard curve was calculated and drawn.
Calculation of extracellular 2-HG content:
The fluorescence value obtained in the extracellular 2-HG detecting system was calculated using the 2-HG standard curve to calculate the content of 2-HG in the medium, and DMSO was used as a negative control to calculate the compound's inhibition against IDH2/R140Q mutation producing 2-HG activity.

Molecules are shown by their SMILES. Some results are limits rather than exact numbers.

Our source for the IC50 values is patent US20220204509A1, “PYRIMIDO FIVE-MEMBERED HETEROCYCLIC COMPOUND AND USE THEREOF AS MUTANT IDH2 INHIBITOR” (EPITAS BIOSCIENCES (SHANGHAI) CO., LTD., priority 2019, published 2022).

For orientation: IC50 means the concentration that gives 50% inhibition.

With `Cc1cc2c(Nc3ccccc3)nc(Nc3ccccc3)nc2[nH]1` [Compound 22, 6-methyl-N2,N4-diphenyl-7H-pyrrolo[2,3-d]pyrimidine-2,4-diamine], the half-inhibitory concentration (IC50) is over 10000 nM at IDH2/R140Q [1] and 1000 to 10000 nM at IDH2/R140Q [2].
Consider `Cn1cnc2c(Nc3ccccc3)nc(-c3ccccc3)nc21` [Compound 24, 9-methyl-N,2-diphenyl-9H-purin-6-amine], for which the 50% inhibitory concentration (IC50) on IDH2/R140Q [1] and on IDH2/R140Q [2] was over 10000 nM throughout.
In the case of `Cc1cc2c(NCC3CC3)nc(-c3ccccc3)nc2[nH]1` [Compound 29, N-(cyclopropylmethyl)-6-methyl-2-phenyl-7H-pyrrole[2,3-d]pyrimidin-4-amine], the half-inhibitory concentration (IC50) on IDH2/R140Q [1] and at IDH2/R140Q [2] was 1000 to 10000 nM in each case.
`Cc1cc2c(Nc3cccc(F)c3)nc(-c3ccccc3)nc2[nH]1` [Compound 31, N-(3-fluorophenyl)-6-methyl-2-phenyl-7H-pyrrolo[2,3-d]pyrimidin-4-amine]: the IC50 on IDH2/R140Q [1] and on IDH2/R140Q [2] was 1000 to 10000 nM throughout.
Regarding `Cc1cc2c(NC3CC3)nc(-c3cccc(F)c3)nc2[nH]1` [Compound 34, N-cyclopropyl-2-(3-fluorophenyl)-6-methyl-7H-pyrrolo[2,3-d]pyrimidin-4-amine], the IC50 lay within 1000 to 10000 nM at IDH2/R140Q [1] and 100 to 1000 nM on IDH2/R140Q [2].
In the same order, the values of `Cc1cc2c(NC3CCCCC3)nc(-c3ccccc3)nc2[nH]1` [Compound 37, N-cyclohexyl-6-methyl-2-phenyl-7H-pyrrolo[2,3-d]pyrimidin-4-amine] are 1000 to 10000 nM and 1000 to 10000 nM.
With `Cc1cc2c(NC3CC3)nc(-c3ccc(F)cc3)nc2[nH]1` [Compound 38, N-cyclopropyl-2-(4-fluorophenyl)-6-methyl-7H-pyrrolo[2,3-d]pyrimidin-4-amine], the IC50 on IDH2/R140Q [1] and on IDH2/R140Q [2] was 1000 to 10000 nM each time.
For the molecule `Cc1cc2c(NCC(C)C)nc(-c3ccccc3)nc2[nH]1` [Compound 39, N-isobutyl-6-methyl-2-phenyl-7H-pyrrolo[2,3-d]pyrimidin-4-amine], the concentration for half-maximal inhibition (IC50) on IDH2/R140Q [1] and at IDH2/R140Q [2] was 100 to 1000 nM throughout.
Consider `Cc1cc2c(-c3ccccc3)nc(NC(C)C)nc2[nH]1` [Compound 40, N-isopropyl-6-methyl-4-phenyl-7H-pyrrolo[2,3-d]pyrimidin-2-amine], for which the IC50 on IDH2/R140Q [1] and on IDH2/R140Q [2] was over 10000 nM in each case.
For `Cc1cc2c(Nc3cccc(Cl)c3)nc(-c3ccccc3)nc2[nH]1` [Compound 41, N-(3-chlorophenyl)-6-methyl-2-phenyl-7H-pyrrolo[2,3-d]pyrimidin-4-amine], the concentration for half-maximal inhibition (IC50) on IDH2/R140Q [1] and on IDH2/R140Q [2] was 1000 to 10000 nM in each case.
For the molecule `Cc1cccc(-c2nc(NC3CC3)c3cc(C)[nH]c3n2)c1` [Compound 42, N-cyclopropyl-6-methyl-2-(m-tolyl)-7H-pyrrolo[2,3-d]pyrimidin-4-amine], the 50% inhibitory concentration (IC50) at IDH2/R140Q [1] and on IDH2/R140Q [2] was 100 to 1000 nM throughout.
Consider `Cc1cc2c(NC3CC3)nc(-c3ccccc3C)nc2[nH]1` [Compound 43, N-cyclopropyl-6-methyl-2-(o-tolyl)-7H-pyrrolo[2,3-d]pyrimidin-4-amine], for which the figures for the IC50 at IDH2/R140Q [1] and on IDH2/R140Q [2] were 1000 to 10000 nM and 100 to 1000 nM, respectively.
For the molecule `CCOC(=O)Cc1cc2c(Nc3ccccc3)nc(-c3ccccc3)nc2[nH]1` [Compound 44], the half-maximal inhibitory concentration (IC50) on IDH2/R140Q [1] and at IDH2/R140Q [2] was 1000 to 10000 nM throughout.
Consider `Cc1ccc(-c2nc(NC3CC3)c3cc(C)[nH]c3n2)cc1` [Compound 45, N-cyclopropyl-6-methyl-2-(p-tolyl)-7H-pyrrolo[2,3-d]pyrimidin-4-amine], for which the IC50 at IDH2/R140Q [1] and on IDH2/R140Q [2] was 1000 to 10000 nM in each case.
Turning to `CC(C)Nc1nc(-c2ccccc2)nc2[nH]c(-c3ccccc3)cc12` [Compound 46, N-isopropyl 2,6-diphenyl-7H-pyrrolo[2,3-d]pyrimidin-4-amine], the half-maximal inhibitory concentration (IC50) at IDH2/R140Q [1] and at IDH2/R140Q [2] was over 10000 nM each time.
Turning to `Cc1cc2c(NC3CC3)nc(-c3ccc(O)cc3)nc2[nH]1` [Compound 47, 4-(4-(cyclopropylamino)-6-methyl-7H-pyrrolo[2,3-d]pyrimidin-2-yl)phenol], the concentration for half-maximal inhibition (IC50) at IDH2/R140Q [1] and at IDH2/R140Q [2] was 100 to 1000 nM in each case.
Take `Cc1cc2c(NC3CCC3)nc(-c3ccccc3F)nc2[nH]1` [Compound 48, N-cyclobutyl-2-(2-fluorophenyl)-6-methyl-7H-pyrrolo[2,3-d]pyrimidin-4-amine]: the IC50 at IDH2/R140Q [1] and on IDH2/R140Q [2] was under 100 nM throughout.
Take `CC(C)Nc1nc(-c2ccccc2)nc2[nH]c(C(F)(F)F)cc12` [Compound 49, N-isopropyl-2-phenyl-6-(trifluoromethyl)-7H-pyrrolo[2,3-d]pyrimidin-4-amine]: the half-inhibitory concentration (IC50) at IDH2/R140Q [1] and at IDH2/R140Q [2] was under 100 nM in each case.
Take `Cc1cc2c(Nc3ccccc3)nc(-c3ccccc3F)nc2[nH]1` [Compound 50, 2-(2-fluorophenyl)-6-methyl-N-phenyl-7H-pyrrolo[2,3-d]pyrimidin-4-amine]: the IC50 at IDH2/R140Q [1] and at IDH2/R140Q [2] was 100 to 1000 nM throughout.
Turning to `Cc1cc2c(NC3CCCC3)nc(-c3ccccc3F)nc2[nH]1` [Compound 51, N-cyclopentyl-2-(2-fluorophenyl)-6-methyl-7H-pyrrolo[2,3-d]pyrimidin-4-amine], the concentration for half-maximal inhibition (IC50) on IDH2/R140Q [1] and on IDH2/R140Q [2] was under 100 nM throughout.
